Reference: patent publication US5725842A, “Method of administering amiloride” (priority 1996, dated 1998)
Structures can show the parent of a compound that is named as a salt.

Assays:
[1] = Timed release (dissolution) of respirable solid amiloride particles in Krebs-Ringer solution approximating plasma, assayed as bioactive amiloride; assay type: physicochemical; settings: amiloride hydrochloride particles ~1 μm; aqueous solution approximating ionic strength of plasma
Description: (§1) Freshly excised human cystic fibrosis airway […] used to assay bioactive amiloride in solution. Freshly excised tissues is obtained from the Operating Room at The University of North Carolina Hospitals as previously described. R. Boucher, M. Stutts, M. Knowles, L. Cantley, and J. Gatzy, Na+ transport in cystic fibrosis respiratory epithelia. Abnormal basal rate and response to adenylate cyclase activation. J. Clin. Invest. 78, 1245-1252 (1986). The tissue preparation is mounted in a minature Ussing chamber that has 6 ml of solution bathing each (mucosal; basolateral) surface of the preparation. The solution is a Krebs-Ringer bicarbonate solution which approximates the ionic composition of plasma. This solution is warmed (37°) and circulated with a gas lift (95% oxygen, 5% CO2) system. Mixing time in this chamber has been previously measured by calibration with dyes (blue dextran) and is five seconds or less. The measurement of sodium transport rates is performed using a voltage clamp that is interfaced to the tissue preparation by pairs of potential sensing electrodes and current passing electrodes. The current required to null the transepithelial potential difference to zero is the short circuit current, which in human airway tissue is an accurate index of sodium transport rates. See R. Boucher et al., supra.

[2] = system: human cystic fibrosis airway epithilia; test: Inhibition of Na+ transport (short circuit current, ISC) by amiloride hydrochloride dry powder in minature Ussing chamber; assay type: cell-based
Description: as §1, with “supra. […] This experiment was conducted as described above. […]” for “supra.”

[3] = system: airway epithelia; settings: applied to luminal membrane; cited from earlier work
[4] = in vivo, po; cited from earlier work
[5] = liquid aerosol, cystic fibrosis; cited from earlier work
[6] = in vivo
[7] = Size distribution of amiloride aerosol (Andersen impactor); assay type: physicochemical; settings: MDI with spacer, 60 Lpm
Description: In each test, the MDI aerosol was dispersed into the spacer via a 50 μl metering valve designed to deliver 1 mg amiloride per puff; however, the actual delivery was closer to 3 mg/puff as determined by spectrophotometric analysis of all amiloride collected as discussed below.
After each experiment, the apparatus was disassembled and each component washed individually with 50 ml of distilled water to remove amiloride and lactose particles.

| SMILES | timed release effect of respirable solid particles [1] | inhibition of ISC ([2]; about 1 μm, at about sixty minutes) | time to complete inhibition of ISC ([2]; particle size about 1 μm, Krebs-Ringer bicarbonate, 37°) | inhibition of Na+ and water absorption [3] | effective concentration in the airway lumen [4] | clinical benefit [5] | maximum systemic dose [6] | mass median diameter (mmd) [7] |
| --- | --- | --- | --- | --- | --- | --- | --- | --- |
| N=C(N)NC(=O)c1nc(Cl)c(N)nc1N [amiloride hydrochloride] | dissolved slowly over time | Complete Inhibition | about sixty |  |  |  |  |  |
| N=C(N)NC(=O)c1nc(Cl)c(N)nc1N [amiloride] |  |  |  | inhibit | cannot be achieved | clinical benefit | 20 mg daily | about 6 um |
